The results in this text go back to article PMC7248897, “Synthesis, Biological Evaluation and In Silico Studies of Certain Oxindole–Indole Conjugates as Anticancer CDK Inhibitors” (Molecules, 2020).

For experiment [1], the system named is MCF-7 breast cancer cell line. Nature of the experiment: SRB anti-proliferative assay, MCF-7. It is filed as cell-based, human. The conditions noted are these: for IC50: Homo sapiens, MCF7, SRB assay, 48 h, mean ± S.D. from 3 separate experiments, read-out: IC50 MCF-7; for fold enhancement of anti-proliferative activity compared to 6a: MCF-7, ratio of IC50 values. As to the method: (§1) Cytotoxicity was assessed following the SRB colorimetric assay protocol, as reported earlier.
(§2) 1. Anti-proliferative action toward human breast cell lines […]
(§3) have been obtained from American Type Culture Collection (ATCC). The cells were maintained in Dulbecco's modified Eagle's medium (DMEM) supplemented with 10% heat inactivated fetal calf serum (GIBCO), penicillin (100 U/ml) and streptomycin (100 µg/ml) at 37 °C in humidified atmosphere containing 5% CO2. Cells at a concentration of […]
(§4) The anti-proliferative activity of the tested hybrids 6a-i, 9a-f and 11a, b was measured in vitro using the Sulfo-Rhodamine-B stain (SRB) assay. Briefly, Cells were inoculated in 96-well microtiter plate (5X104 cells/ well) for 24 h before treatment with the tested compounds to allow attachment of cell to the wall of the plate. Tested compounds were dissolved in DMSO at 1 mg/ml immediately before use and diluted to the appropriate volume just before addition to the cell culture. Different concentrations of tested compounds, doxorubicin and sorafenib were added to the cells (three wells were prepared for each individual dose). Cells were incubated with the compounds for 48 h at 37°C and in atmosphere of 5% CO2. After 48 h cells were fixed, washed, and stained for 30 min with 0.4% (w/v) SRB dissolved in 1% acetic acid. Unbound dye was removed by four washes with 1% acetic acid, and attached stain was recovered with Tris-EDTA buffer.
(§5) Color intensity was measured in an ELISA reader. […]
Background: In SRB staining, fixed cells bind dye roughly in proportion to their protein.

Experiment [2] deals with MDA-MB-231 breast cancer cell line. Nature of the experiment: SRB anti-proliferative assay, MDA-MB-231. It is filed as cell-based, human. Conditions: for IC50: Homo sapiens, MDA-MB-231, SRB assay, 48 h, mean ± S.D. from 3 separate experiments, read-out: IC50 MDA-MB-231. As to the method:
as §1, §2, §3, §4, §5

Experiment [3] concerns MCF-7 cells. The experiment is described as follows: Cell cycle analysis by flow cytometry (PI). It is filed as cell-based, human. Conditions: for fold elevation in sub-G1 phase / fold increase of cells in G2/M phase: MCF-7, in comparison to the control (DMSO); for %Sub-G1 / %G2/M / %S / %G0–G1: MCF-7 cells treated at IC50, 24 h; for %Sub-G1: control 1.37; for %G2/M: control 14.73; for %S: control 27.45; for %G0–G1: control 56.45. The procedure:
Most of the cytotoxic agents wield their anti-proliferative effect by arresting the cell cycle at some checkpoints. Cell cycle analysis employs flow cytometry to distinguish cells within the different cell cycle phases. […] MCF-7 cells were treated by the IC50 of the two conjugates and their impact on the cell population was recorded. […] This was accompanied by discernible escalation in the proportion of cells in the G2/M phase by 2.80- and 2.46-fold with concomitant elevation in the sub-G1 phase by 17.8 and 16.25-fold, respectively, in comparison to the control (DMSO). […]
The two examined human breast cancer cell lines (MCF-7 and Breast MDA-MB-231) have been obtained from American Type Culture Collection (ATCC). The cells were maintained in Dulbecco's modified Eagle's medium (DMEM) supplemented with 10% heat inactivated fetal calf serum (GIBCO), penicillin (100 U/ml) and streptomycin (100 µg/ml) at 37 °C in humidified atmosphere containing 5% CO2. Cells at a concentration of 0.50 x 106 were grown in a 25 cm2 flask in 5 ml of culture medium. […]
Breast cancer MCF-7 cells were treated with hybrids 6e and 6f for 24 h (at their IC50 concentration), and then cells were washed twice with ice-cold phosphate buffered saline (PBS). Subsequently, the treated cells were collected by centrifugation, fixed in ice-cold 70% (v/v) ethanol, washed with PBS, re-suspended with 100 μg/mL RNase, stained with 40 μg/mL PI, and analyzed by flow cytometry using FACS Calibur (Becton Dickinson, BD, Franklin Lakes, NJ, USA). The cell cycle distributions were calculated using CellQuest software 5.1 (Becton Dickinson).
Background: In flow cytometry, cells or beads pass a laser one at a time.

Experiment [4] concerns p53. Nature of the experiment: ELISA of p53 level in MCF-7 cells. It is filed as cell-based, human. Conditions: for fold increase of p53 level: MCF-7, as compared to the control; for p53: MCF-7 cells treated at IC50, 48 h, control 41.26 ± 2.7. As to the method: In addition, their influence on the level of caspase-3 and p53 was estimated in the MCF-7 cell line.
Assessment of the levels for the proapoptotic markers (Bax, caspase-3, and p53) as well as the antiapoptotic marker (Bcl-2) was carried out through the use of ELISA colorimetric kits in accordance with the manufacturer’s instructions, as mentioned earlier. In addition, the pro-apoptotic potential of indoles 6e and 6f towards MCF-7 cells was evaluated through an FITC Annexin V apoptosis detection kit by flow cytometry, in accordance with the manufacturer’s protocol and referring to the reported procedures.
The levels of the pro-apoptotic markers (Bax, caspase-3 and p53) as well as the anti-apoptotic marker Bcl-2 were determined using ELISA colorimetric kits per the manufacturer’s instructions. Breast cancer MCF-7 cells were cultured as a monolayer in T-25 flasks and were seeded to attain 30% confluency prior to treatment. Cells were then […]
of treatment, cells were collected via trypsinization and centrifuged at 10,000 rpm. The pellet was then rinsed with PBS and lysed in RIPA lysis buffer at 4 °C for 45 min, then centrifuged at 14,000 rpm for 20 min to remove the cellular debris. Lysates were then collected and stored at −80 °C for later protein determination using Pierce BCA Protein Assay Kit according to manufacturer’s recommendations.
The cell lysate was diluted 10 times, and 100 μL ([…]) was added to the wells of four separate microtiter plates for the four ELISA kits that were pre-coated with primary antibodies specific to Bax, Bcl-2, caspase-3 and p53 proteins, respectively. A secondary biotin-linked antibody specific to the protein captured by the primary antibody was further added to bind the captured protein, forming a “sandwich” of specific antibodies around the desired protein in the cell lysate. The streptavidin-HRP complex was then used to bind the biotin-linked secondary antibody through its streptavidin portion. The HRP domain reacted with the added TMB substrate to form a colored product that measured at 450 nm by a plate reader ChroMate-4300 after the reaction was terminated via the addition of stop solution. […]
Cells were then rinsed in binding buffer and resuspended in 150
μL of binding buffer with the addition of 1 μL of DAPI (1 μg/μL in PBS). […]
For orientation: An ELISA detects its analyte on a solid surface through an enzyme-linked reagent.

In experiment [5] the target is T1, CDK4 (Homo sapiens, UniProt P11802).
T1 construct: purchased Reaction Biology Corp. (Kinase HotSpot service)
Nature of the experiment: CDK4 kinase inhibition (Reaction Biology HotSpot). Conditions: for inhibition at 20 µM: single dose of 20 µM. It is filed as biochemical. The text has this: (§6) 5. CDK Kinase Inhibitory Activity
(§7) along with required cofactors.
(§8) Kinase activity data were
(§9) (dimethyl sulfoxide) reactions.

In experiment [6] the target is T2, CDK2 (Homo sapiens, UniProt P24941).
T2 construct: purchased Reaction Biology Corp. (Kinase HotSpot service)
The experiment is described as follows: CDK2 kinase inhibition (Reaction Biology HotSpot). Format: biochemical. Conditions: single dose of 20 µM; read-out: % Enzyme Inhibitory Activity CDK2.
Text: as §6, §7, §8, §9

Experiment [7] concerns the target CDK9 (Homo sapiens, UniProt P50750). The experiment is described as follows: CDK9 kinase inhibition (Reaction Biology HotSpot). Conditions: read-out: % Enzyme Inhibitory Activity CDK9.
Protocol: The in vitro CDK kinase inhibition assay was performed by Reaction Biology Corp. (PA, USA) (http://www.reactionbiology.com) Kinase HotSpotSM service.
Reaction Biology Corp. Kinase HotSpotSM service (http://www.reactionbiology.com)
was used for screening of tested compounds. CDK Kinase inhibitory activities were
assessed by the HotSpot assay platform, which contained specific kinase/substrate pairs
along with required cofactors. Base reaction buffer: 20 mM Hepes (pH 7.5), 10 mM MgCl2,
Testing compounds were dissolved in 100% DMSO to specific concentration. The serial
dilution was conducted by Integra Viaflo Assist in DMSO. The reaction mixture containing the examined compound and 33P-ATP was incubated at room temperature for
2 h and radioactivity was detected by filter-binding method. Kinase activity data were
expressed as the percent remaining kinase activity in test samples compared to vehicle

T1 sequence (P11802 whole entry): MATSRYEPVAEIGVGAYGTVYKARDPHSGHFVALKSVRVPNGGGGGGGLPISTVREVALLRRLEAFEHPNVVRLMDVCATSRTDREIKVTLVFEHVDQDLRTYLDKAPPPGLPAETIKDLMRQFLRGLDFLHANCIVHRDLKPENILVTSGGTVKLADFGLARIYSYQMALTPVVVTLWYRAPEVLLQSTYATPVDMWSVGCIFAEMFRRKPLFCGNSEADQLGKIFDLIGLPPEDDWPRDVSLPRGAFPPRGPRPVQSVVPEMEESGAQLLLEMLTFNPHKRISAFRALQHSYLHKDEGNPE
T1 sequence (P24385 whole entry partner): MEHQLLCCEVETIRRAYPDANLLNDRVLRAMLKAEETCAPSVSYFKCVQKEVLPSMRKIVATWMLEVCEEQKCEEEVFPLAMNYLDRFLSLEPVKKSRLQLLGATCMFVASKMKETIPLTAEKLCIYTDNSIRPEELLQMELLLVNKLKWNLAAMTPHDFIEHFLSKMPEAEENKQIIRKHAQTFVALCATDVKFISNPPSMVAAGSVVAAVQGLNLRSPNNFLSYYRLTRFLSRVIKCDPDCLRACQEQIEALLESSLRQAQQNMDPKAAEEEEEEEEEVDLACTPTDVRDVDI
Chain of CDK9 (P50750 whole entry): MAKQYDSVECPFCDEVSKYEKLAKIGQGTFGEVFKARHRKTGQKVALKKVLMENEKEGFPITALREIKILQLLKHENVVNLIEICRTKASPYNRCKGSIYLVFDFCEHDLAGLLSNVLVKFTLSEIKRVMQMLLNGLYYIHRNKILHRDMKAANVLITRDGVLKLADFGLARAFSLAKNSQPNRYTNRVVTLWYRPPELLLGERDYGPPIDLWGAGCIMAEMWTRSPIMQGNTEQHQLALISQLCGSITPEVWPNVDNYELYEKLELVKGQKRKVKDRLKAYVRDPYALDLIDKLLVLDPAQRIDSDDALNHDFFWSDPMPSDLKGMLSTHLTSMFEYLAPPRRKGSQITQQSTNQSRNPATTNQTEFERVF
Chain of CDK9 (O60563 whole entry partner): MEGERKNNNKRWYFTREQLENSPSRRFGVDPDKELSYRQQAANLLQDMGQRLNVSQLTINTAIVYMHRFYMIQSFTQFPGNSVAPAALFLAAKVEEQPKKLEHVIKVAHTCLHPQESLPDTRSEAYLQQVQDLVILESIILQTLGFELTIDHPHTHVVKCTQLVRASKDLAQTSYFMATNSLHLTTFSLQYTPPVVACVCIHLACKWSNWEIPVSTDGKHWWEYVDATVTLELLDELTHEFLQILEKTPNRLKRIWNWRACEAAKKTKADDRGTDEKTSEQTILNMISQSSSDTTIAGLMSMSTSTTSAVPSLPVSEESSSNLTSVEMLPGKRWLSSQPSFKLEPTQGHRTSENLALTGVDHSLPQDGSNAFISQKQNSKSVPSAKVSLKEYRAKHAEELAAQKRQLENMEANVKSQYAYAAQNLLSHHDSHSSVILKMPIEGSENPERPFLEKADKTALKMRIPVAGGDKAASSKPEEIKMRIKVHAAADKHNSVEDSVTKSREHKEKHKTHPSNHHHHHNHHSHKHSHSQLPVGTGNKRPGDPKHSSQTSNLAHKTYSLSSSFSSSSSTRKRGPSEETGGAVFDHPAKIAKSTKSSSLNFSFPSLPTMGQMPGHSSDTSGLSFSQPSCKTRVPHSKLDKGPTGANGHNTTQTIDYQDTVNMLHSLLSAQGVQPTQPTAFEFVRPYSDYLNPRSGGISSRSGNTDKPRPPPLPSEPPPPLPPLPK

For `Cc1ccc2c(c1)/C(=N/NC(=O)c1cc3ccccc3[nH]1)C(=O)N2` [6e], in experiment [1], the IC50 (in general, the point on the concentration scale where inhibition reaches its midpoint) is 0.39 ± 0.05 µM and the “fold enhancement of anti-proliferative activity compared to 6a” value was determined as 8 fold. Moreover, the IC50 in experiment [2] was 22.5 ± 1.67 µM. Moreover, in experiment [3], the “fold elevation in sub-G1 phase” value was determined as 17.8 fold, the “fold increase of cells in G2/M phase” value worked out at 2.80 fold, the “%Sub-G1” value turned out to be 24.49% and the “%G2/M” value stood at 41.47%. Moreover, in experiment [3], the “%S” value is given as 14.81% and the “%G0–G1” value was found to be 19.23%. In experiment [4], the “fold increase of p53 level” value stood at 17 fold and the p53 was found to be 704.39 ± 32.8 pg/mg. In addition, in experiment [5], the IC50 came out at 1.26 µM and the inhibition at 20 µM was 93%. Moreover, the inhibition at 20 µM in experiment [6] is not below 50%. The inhibition at 20 µM in experiment [7] came out at 18%.

`COc1ccc2c(c1)/C(=N/NC(=O)c1cc3ccccc3[nH]1)C(=O)N2` [6f]: in experiment [1], the half-inhibitory concentration (IC50) came out at 1.85 ± 0.08 µM and the “fold enhancement of anti-proliferative activity compared to 6a” value was 1.7 fold. In experiment [2], the concentration for half-maximal inhibition (IC50) amounted to 2.85 ± 0.9 µM. Also, in experiment [2] (MDA-MB-231, ratio of IC50 values), the “fold potency compared to staurosporine” value is recorded as 3.6 fold. Also, in experiment [3], the “fold elevation in sub-G1 phase” value is on record as 16.25 fold, the “fold increase of cells in G2/M phase” value is given as 2.46 fold, the “%Sub-G1” value amounted to 22.26% and the “%G2/M” value is listed as 36.26%. In addition, in experiment [3], the “%S” value is 19.29% and the “%G0–G1” value turned out to be 22.19%. In experiment [4], the “fold increase of p53 level” value worked out at 13.3 fold and the p53 is reported as 547.60 ± 29.5 pg/mg. The compound also yielded an inhibition at 20 µM in experiment [5] of 14%. For the same compound, in experiment [6], the inhibition at 20 µM is not below 50%. The inhibition at 20 µM in experiment [7] was 8%.
